Experimental data: ChEMBL document CHEMBL6177933, “Discovery of Sophoridine α-Aryl Propionamide Derivative ZM600 as a Novel Antihepatic Fibrosis Agent” (J Med Chem, 2024)
Calls of active or inactive are those of the source. The rule behind the calls is not given here.

Legend:
[1] = system: RAW264.7; test: Inhibition of LPS-induced NFkappaB transcriptional activity in mouse RAW264.7 cells at 20 uM preincubated for 2 hrs followed by LPS stimulation and measured after 6 hrs by luciferase reporter gene assay relative to control; assay type: cell-based; details: time 8.0 hrs
[2] = system: RAW264.7; test: Inhibition of LPS-induced NFkappaB transcriptional activity in mouse RAW264.7 cells at 10 uM preincubated for 2 hrs followed by LPS stimulation and measured after 6 hrs by luciferase reporter gene assay relative to control; assay type: cell-based; details: time 8.0 hrs
[3] = Cytotoxicity against human LX-2 cells assessed as reduction in cell viability measured after 48 hrs by CCK-8 assay; assay type: toxicity, cell-based
[4] = system: RAW264.7; test: Inhibition of LPS-induced NFkappaB transcriptional activity in mouse RAW264.7 cells at 5 uM preincubated for 2 hrs followed by LPS stimulation and measured after 6 hrs by luciferase reporter gene assay relative to control; assay type: cell-based; details: time 8.0 hrs
[5] = system: RAW264.7; test: Antiinflammatory activity in mouse RAW264.7 cells assessed as inhibition of TGFbeta1-induced collagen 1 expression at 5 to 20 uM preincubated for 2 hrs […] and measured after 48 hrs by Western blot analysis; assay type: functional, cell-based; details: dose 5-20 µM, time 50.0 hrs
[6] = system: RAW264.7; test: Antiinflammatory activity in mouse RAW264.7 cells assessed as inhibition of TGFbeta1-induced alpha-SMA expression at 5 to 20 uM preincubated for 2 hrs […] and measured after 48 hrs by Western blot analysis; assay type: functional, cell-based; details: dose 5-20 µM, time 50.0 hrs

Structure (SMILES)	fold change (FC) [1]	fold change (FC) [2]	IC50 at 48 h [3]	fold change (FC) [4]	inhibition [5]	inhibition [6]
COC(=O)CCC[C@@H]1[C@H]2CCCN3CCC[C@H](CN1C(=O)CC1=C(C)/C(=C/c4ccc([S+](C)[O-])cc4)c4ccc(F)cc41)[C@@H]23 (some centres not stated)	0.99	1	61.8 µM	0.99		
COC(=O)CCC[C@@H]1[C@H]2CCCN3CCC[C@H](CN1C(=O)Cc1ccc(-c4ccccc4)c(F)c1)[C@@H]23	1.04	1.13	14.5 µM	0.97		
COC(=O)CCC[C@@H]1[C@H]2CCCN3CCC[C@H](CN1C(=O)[C@H](C)c1ccc4cc(OC)ccc4c1)[C@@H]23	0.94	0.99	63.5 µM	1.02		
COC(=O)CCC[C@@H]1[C@H]2CCCN3CCC[C@H](CN1C(=O)Cc1ccc(-c4ccccc4)cc1)[C@@H]23	0.85	0.94	31.7 µM	0.99		
COC(=O)CCC[C@@H]1[C@H]2CCCN3CCC[C@H](CN1C(=O)COC(=O)Cc1ccccc1Nc1c(Cl)cccc1Cl)[C@@H]23	0.81	0.93	14.7 µM	0.93		
COC(=O)CCC[C@@H]1[C@H]2CCCN3CCC[C@H](CN1C(=O)C(C)c1ccc(-c4ccccc4)cc1)[C@@H]23 (some centres not stated)	1.04	1.08	21.9 µM	1.01		
COC(=O)CCC[C@@H]1[C@H]2CCCN3CCC[C@H](CN1C(=O)Cc1ccc(-c4cccc(F)c4)cc1)[C@@H]23	1.04	1.16	53.3 µM	1.21		
COC(=O)CCC[C@@H]1[C@H]2CCCN3CCC[C@H](CN1C(=O)C(C)c1ccc(CC(C)C)cc1)[C@@H]23 (some centres not stated)	1	1.04	53 µM	1.03		
O=C1CCC[C@@H]2[C@H]3CCCN4CCC[C@H](CN12)[C@@H]34 [SOPHORIDINE]	1.05	0.94	> 100 µM	1.03	inactive	inactive
COC(=O)CCC[C@@H]1[C@H]2CCCN3CCC[C@H](CN1C(=O)Cc1ccc(-n4c(C)ccc4C)cc1)[C@@H]23	1.08	0.93	96 µM	1.05		
